In patent US12157730B2, “Heteroaryl derivative, method for producing same, and pharmaceutical composition comprising same as effective component” (VORONOI INC., priority 2019, dated 2024):

What follows are compounds tested against T1, Ba/F3 cell EGFR Exon20 ins NPH (Homo sapiens, UniProt P00533, INS773NPH) (assay: Ba/F3 cell proliferation suppression, EGFR Exon20 ins NPH). Conditions: GI50 class; Ba/F3 cell line with NPH inserted at Exon20 of EGFR; 72 hours.
T1 construct: expressed in transfected cells; host or cells: Ba/F3
Format: cell-based
Procedure, shortened: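 Cells (3000–5000/well) plated 24 h before compound, 12-point 3-fold dilutions at 0.3 nM to 50 um final; Ba/F3 lines grown with 5 ng/ml IL-3. Viability by CellTiter-Glo luminescence after 72 h, growth ratio vs control, GI50 from curves; triplicate.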

| SMILES | Ba/F3 (NPH) Activity |
| --- | --- |
| C=CC(=O)Nc1cc(Nc2cc(N3OCC[C@@H]3c3cc(F)ccc3F)ncn2)c(OC)cc1N1C[C@@H]2C[C@H]1CO2 [compound 329, N-(2-((1S,4S)-2-oxa-5-azabicyclo[2.2.1]heptane-5-yl)-5-((6-((R)-3-(2,5-difluorophenyl)isoxazolidine-2-yl)pyrimidine-4-yl)amino)-4-methoxyphenyl) acrylamide] | A (GI50 < 50 nM) |
| C=CC(=O)Nc1cc(Nc2cc(N3OCC[C@@H]3Cc3cccnc3)ncn2)c(OC)cc1N1CCC(N2CCN(C3CC3)[C@H](C)C2)CC1 [compound 1056, N-(2-(4-((R)-4-cyclopropyl-3-methylpiperazine-1-yl)piperidine-1-yl)-4-methoxy-5-((6-((S)-3-(pyridine-3-ylmethyl)isoxazolidine-2-yl)pyrimidine-4-yl)amino)phenyl)acrylamide] | B (50 nM ≤ GI50 < 500 nM) |
| C=CC(=O)Nc1cc(Nc2cc(N3OCC[C@@H]3c3ccc(Cl)c(Cl)c3)ncn2)c(OC)cc1N1CCN(C(C)=O)CC1 [compound 675, N-(2-(4-acetylpiperazine-1-yl)-5-((6-((R)-3-(3,4-dichlorophenyl)isoxazolidine-2-yl)pyrimidine-4-yl)amino)-4-methoxyphenyl) acrylamide] | A (GI50 < 50 nM) |
| C=CC(=O)Nc1cc(Nc2cc(N3OCC[C@@H]3c3ccc(F)c(Cl)c3)ncn2)c(OC)cc1N1CCC(N2CCN(C3CC3)[C@@H](C)C2)CC1 [Example 177, N-(5-((6-((R)-3-(3-chloro-4-fluorophenyl)isoxazolidine-2-yl)pyrimidine-4-yl)amino)-2-(4-((S)-4-cyclopropyl-3-methylpiperazine-1-yl)piperidine-1-yl)-4-methoxyphenyl) acrylamide] | A (GI50 < 50 nM) |
| C=CC(=O)Nc1cc(Nc2cc(N3OCC[C@H]3c3c(F)cccc3F)ncn2)c(OC)cc1N1CCC(N2CCOCC2)CC1 [compound 897, N-(5-((6-((S)-3-(2,6-difluorophenyl)isoxazolidine-2-yl)pyrimidine-4-yl)amino)-4-methoxy-2-(4-morpholinopiperidine-1-yl)phenyl)acrylamide] | C (500 nM ≤ GI50 < 5000 nM) |
| C=CC(=O)Nc1cc(Nc2cc(N3OCC[C@@H]3c3cccc(F)c3F)ncn2)c(OC)cc1N1CCC(N2CC[C@H](N(C)C)C2)CC1 [compound 340, N-(5-((6-((R)-3-(2,3-difluorophenyl)isoxazolidine-2-yl)pyrimidine-4-yl)amino)-2-(4-((S)-3-(dimethylamino)pyrolidine-1-yl)piperidine-1-yl)-4-methoxyphenyl) acrylamide] | A (GI50 < 50 nM) |
| C=CC(=O)Nc1cc(Nc2cc(N3OCC[C@@H]3c3cc(F)cc(Cl)c3)ncn2)c(OC)cc1N1CCC(N2CCN(C(C)C)CC2)CC1 [compound 593, N-(5-((6-((R)-3-(3-chloro-5-fluorophenyl)isoxazolidine-2-yl)pyrimidine-4-yl)amino)-2-(4-(4-isopropylpiperazine-1-yl)piperidine-1-yl)-4-methoxyphenyl) acrylamide] | A (GI50 < 50 nM) |
| C=CC(=O)Nc1cc(Nc2cc(N3OCC[C@H]3Cc3cccnc3)ncn2)c(OC)cc1N1CCC(N2C[C@@H]3C[C@H]2CO3)CC1 [compound 989, N-(2-(4-((1S,4S)-2-oxa-5-azabicyclo [2.2.1]heptane-5-yl)piperidine-1-yl)-4-methoxy-5-((6-((R)-3-(pyridine-3-ylmethyl)isoxazolidine-2-yl)pyrimidine-4-yl)amino)phenyl)acrylamide] | B (50 nM ≤ GI50 < 500 nM) |
| C=CC(=O)Nc1cc(Nc2cc(N3OCC[C@@H]3c3cc(F)ccc3F)ncn2)c(OC)cc1N1CCC(N2CCN(C3CCCC3)CC2)CC1 [Example 100, N-(2-(4-(4-cyclopentylpiperazine-1-yl)piperidine-1-yl)-5-((6-((R)-3-(2,5-difluorophenyl)isoxazolidine-2-yl)pyrimidine-4-yl)amino)-4-methoxyphenyl) acrylamide] | A (GI50 < 50 nM) |
| C=CC(=O)Nc1cc(Nc2cc(N3OCC[C@@H]3c3cc(F)cc(F)c3)ncn2)c(OC)cc1N1C[C@H]2C[C@@H]1CO2 [compound 436, N-(2-((1R,4R)-2-oxa-5-azabicyclo[2.2.1]heptane-5-yl)-5-((6-((R)-3-(3,5-difluorophenyl)isoxazolidine-2-yl)pyrimidine-4-yl)amino)-4-methoxyphenyl) acrylamide] | B (50 nM ≤ GI50 < 500 nM) |
| C=CC(=O)Nc1cc(Nc2cc(N3OCC[C@@H]3c3cc(F)cc(F)c3)ncn2)c(OC)cc1N1CCC(N2C[C@H]3CC[C@@H](C2)O3)CC1 [compound 759, N-(2-(4-((1R,5S)-8-oxa-3-azabicyclo [3.2.1]octan-3-yl)piperidine-1-yl)-5-((6-((R)-3-(3,5-difluorophenyl)isoxazolidine-2-yl)pyrimidine-4-yl)amino)-4-methoxyphenyl) acrylamide] | B (50 nM ≤ GI50 < 500 nM) |
| C=CC(=O)Nc1cc(Nc2cc(N3OCC[C@@H]3c3cccc4ccccc34)ncn2)c(OC)cc1N1CCC(N2CCN(C3COC3)CC2)CC1 [Example 198, N-(4-methoxy-5-((6-((R)-3-(naphthalene-1-yl)isoxazolidine-2-yl)pyrimidine-4-yl)amino)-2-(4-(4-(oxetane-3-yl)piperazine-1-yl)piperidine-1-yl)phenyl)acrylamide] | A (GI50 < 50 nM) |
| C=CC(=O)Nc1cc(Nc2cc(N3OCC[C@@H]3c3cc(F)cc(F)c3)ncn2)c(OC)cc1N1CCN(C2COC2)CC1 [Example 273, N-(5-((6-((R)-3-(3,5-difluorophenyl)isoxazolidine-2-yl)pyrimidine-4-yl)amino)-4-methoxy-2-(4-(oxetane-3-yl)piperazine-1-yl)phenyl)acrylamide] | B (50 nM ≤ GI50 < 500 nM) |
| C=CC(=O)Nc1cc(Nc2cc(N3OCC[C@@H]3c3c(F)ccc(F)c3F)ncn2)c(OC)cc1N1CCC(N2CCN(C3CC3)[C@H](C)C2)CC1 [Example 166, N-(2-(4-((R)-4-cyclopropyl-3-methylpiperazine-1-yl)piperidine-1-yl)-4-methoxy-5-((6-((R)-3-(2,3,6-trifluorophenyl)isoxazolidine-2-yl)pyrimidine-4-yl)amino)phenyl)acrylamide] | A (GI50 < 50 nM) |
| C=CC(=O)Nc1cc(Nc2cc(N3OCC[C@@H]3c3cccc(Cl)c3Cl)ncn2)c(OC)cc1-n1cnc(C)c1 [compound 527, N-(5-((6-((R)-3-(2,3-dichlorophenyl)isoxazolidine-2-yl)pyrimidine-4-yl)amino)-4-methoxy-2-(4-methyl-1H-imidazole-1-yl)phenyl)acrylamide] | A (GI50 < 50 nM) |
| C=CC(=O)Nc1cc(Nc2cc(N3OCC[C@@H]3c3ccc(Cl)c(F)c3)ncn2)c(OC)cc1N1CCC(N2C[C@@H]3C[C@H]2CN3C)CC1 [compound 857, N-(5-((6-((R)-3-(4-chloro-3-fluorophenyl)isoxazolidine-2-yl)pyrimidine-4-yl)amino)-4-methoxy-2-(4-((1S,4S)-5-methyl-2,5-diazabicyclo[2.2.1]heptane-2-yl)piperidine-1-yl)phenyl)acrylamide] | A (GI50 < 50 nM) |
| C=CC(=O)Nc1cc(Nc2cc(N3OCC[C@@H]3c3cccc(Cl)c3)ncn2)c(OC)cc1N1CCC(N(C)C)CC1 [compound 361, N-(5-((6-((R)-3-(3-chlorophenyl)isoxazolidine-2-yl)pyrimidine-4-yl)amino)-2-(4-(dimethylamino)piperidine-1-yl)-4-methoxyphenyl) acrylamide] | A (GI50 < 50 nM) |
| C=CC(=O)Nc1cc(Nc2cc(N3OCC[C@@H]3c3cccc(C)c3F)ncn2)c(OC)cc1N1CCC(N2CCOCC2)CC1 [compound 856, N-(5-((6-((R)-3-(2-fluoro-3-methylphenyl)isoxazolidine-2-yl)pyrimidine-4-yl)amino)-4-methoxy-2-(4-morpholinopiperidine-1-yl)phenyl)acrylamide] | A (GI50 < 50 nM) |
| C=CC(=O)Nc1cc(Nc2cc(N3OCC[C@@H]3Cc3cccc(Cl)c3Cl)ncn2)c(OC)cc1N1CCC(N2CCN(C(C)C)CC2)CC1 [compound 1015, N-(5-((6-((S)-3-(2,3-dichlorobenzyl)isoxazolidine-2-yl)pyrimidine-4-yl)amino)-2-(4-(4-isopropylpiperazine-1-yl)piperidine-1-yl)-4-methoxyphenyl) acrylamide] | A (GI50 < 50 nM) |
| C=CC(=O)Nc1cc(Nc2cc(N3OCC[C@@H]3c3ccc(F)c(Cl)c3)ncn2)c(OC)cc1N1CCC(N(C)C)CC1 [compound 755, N-(5-((6-((R)-3-(3-chloro-4-fluorophenyl)isoxazolidine-2-yl)pyrimidine-4-yl)amino)-2-(4-(dimethylamino)piperidine-1-yl)-4-methoxyphenyl) acrylamide] | A (GI50 < 50 nM) |
| C=CC(=O)Nc1cc(Nc2cc(N3OCC[C@@H]3c3ccc4ccccc4c3)ncn2)c(OC)cc1N1CCC(N2C[C@H]3C[C@@H]2CO3)CC1 [compound 557, N-(2-(4-((1R,4R)-2-oxa-5-azabicyclo[2.2.1]heptane-5-yl)piperidine-1-yl)-4-methoxy-5-((6-((R)-3-(naphthalene-2-yl)isoxazolidine-2-yl)pyrimidine-4-yl)amino)phenyl)acrylamide] | B (50 nM ≤ GI50 < 500 nM) |
| C=CC(=O)Nc1cc(Nc2cc(N3OCC[C@@H]3c3cc(F)ccc3F)ncn2)c(OC)cc1N1CCC(N2CCN(C)[C@H](C)C2)CC1 [compound 851, N-(5-((6-((R)-3-(2,5-difluorophenyl)isoxazolidine-2-yl)pyrimidine-4-yl)amino)-2-(4-((R)-3,4-dimethylpiperazine-1-yl)piperidine-1-yl)-4-methoxyphenyl) acrylamide] | A (GI50 < 50 nM) |
| C=CC(=O)Nc1cc(Nc2cc(N3OCC[C@@H]3c3cccc(Cl)c3)ncn2)c(OC)cc1N1CCC(N2CCN(C3CCC3)CC2)CC1 [Example 185, N-(5-((6-((R)-3-(3-chlorophenyl)isoxazolidine-2-yl)pyrimidine-4-yl)amino)-2-(4-(4-cyclobutylpiperazine-1-yl)piperidine-1-yl)-4-methoxyphenyl) acrylamide] | A (GI50 < 50 nM) |
